In ChEMBL document CHEMBL3885881, “DrugMatrix”:

Species: Rattus norvegicus
Test: DrugMatrix - Regimen: Daily Repeat
Type: toxicity, organism-based, Sprague-Dawley
Design: regimen Daily Repeat, gender Male, age 6-8 weeks
Conditions: in vivo, po, route oral GAVAGE, vehicle .5 % CMC; for ABSOLUTE BASOPHIL / ABSOLUTE EOSINOPHIL / ABSOLUTE LYMPHOCYTE / ABSOLUTE MONOCYTE / ABSOLUTE SEGMENTED NEUTROPHIL / BASOPHIL / EOSINOPHIL / ERYTHROCYTE COUNT / HEMATOCRIT / HEMOGLOBIN / LEUKOCYTE COUNT / LYMPHOCYTE / MEAN CORPUSCULAR HEMOGLOBIN / MEAN CORPUSCULAR HEMOGLOBIN CONCENTRATION / MEAN CORPUSCULAR VOLUME / MONOCYTE / NEUTROPHIL / NUCLEATED RED BLOOD CELLS / PLATELET COUNT: tissue Blood; for ALANINE AMINOTRANSFERASE / ALBUMIN / ALKALINE PHOSPHATASE / ASPARTATE AMINOTRANSFERASE / BLOOD UREA NITROGEN / CARBON DIOXIDE / CHLORIDE / CHOLESTEROL / CREATINE PHOSPHOKINASE / CREATININE / GLUCOSE / LACTATE DEHYDROGENASE / LIPASE / PHOSPHORUS / POTASSIUM / SODIUM / TOTAL BILIRUBIN / TOTAL PROTEIN / URIC ACID: tissue Plasma
[1] = 0 mg/kg, 72 h, dose level Control, time 3 day
[2] = 0 mg/kg, 120 h, dose level Control, time 5 day
[3] = 30 mg/kg, 72 h, dose level Low, time 3 day
[4] = 30 mg/kg, 120 h, dose level Low, time 5 day

## COc1cc(OC)c(C(=O)CCCN2CCCC2)c(OC)c1 [BUFLOMEDIL]
[1]
  ABSOLUTE BASOPHIL: 0 CELLS/uL
  ABSOLUTE EOSINOPHIL: 0 CELLS/uL
  ABSOLUTE LYMPHOCYTE: 10913.67 CELLS/uL
  ABSOLUTE MONOCYTE: 85.33 CELLS/uL
  ABSOLUTE SEGMENTED NEUTROPHIL: 1401 CELLS/uL
  BASOPHIL: 0%
  EOSINOPHIL: 0%
  ERYTHROCYTE COUNT: 5.57 x10E6/uL
  HEMATOCRIT: 35.58%
  HEMOGLOBIN: 13.8 G/DL
  LEUKOCYTE COUNT: 12.4 x10E3/uL
  LYMPHOCYTE: 88%
  MEAN CORPUSCULAR HEMOGLOBIN: 24.78 pg
  MEAN CORPUSCULAR HEMOGLOBIN CONCENTRATION: 38.82 G/DL
  MEAN CORPUSCULAR VOLUME: 63.88 fL
  MONOCYTE: 0.67%
  NEUTROPHIL: 11.33%
  NUCLEATED RED BLOOD CELLS: 0 /100WBC
  PLATELET COUNT: 1162.33 x10E3/uL
  ALANINE AMINOTRANSFERASE: 53 u/L
  ALBUMIN: 4.17 G/DL
  ALKALINE PHOSPHATASE: 374.5 u/L
  ASPARTATE AMINOTRANSFERASE: 89.5 u/L
  BLOOD UREA NITROGEN: 16.33 mg/dL
  CARBON DIOXIDE: 29.17 mmol/L
  CHLORIDE: 97.67 MEQ/L
  CHOLESTEROL: 77 mg/dL
  CREATINE PHOSPHOKINASE: 464.83 u/L
  CREATININE: 0.14 mg/dL
  GLUCOSE: 164 mg/dL
  LACTATE DEHYDROGENASE: 155.5 u/L
  LIPASE: 9.17 u/L
  PHOSPHORUS: 12.4 mg/dL
  POTASSIUM: 6.91 MEQ/L
  SODIUM: 141.47 MEQ/L
  TOTAL BILIRUBIN: 0.2 mg/dL
  TOTAL PROTEIN: 5.95 G/DL
  URIC ACID: 1.72 mg/dL
[2]
  ABSOLUTE BASOPHIL: 0 CELLS/uL
  ABSOLUTE EOSINOPHIL: 20.5 CELLS/uL
  ABSOLUTE LYMPHOCYTE: 13871.67 CELLS/uL
  ABSOLUTE MONOCYTE: 60.5 CELLS/uL
  ABSOLUTE SEGMENTED NEUTROPHIL: 980.67 CELLS/uL
  BASOPHIL: 0%
  EOSINOPHIL: 0.17%
  ERYTHROCYTE COUNT: 5.65 x10E6/uL
  HEMATOCRIT: 35.63%
  HEMOGLOBIN: 14.08 G/DL
  LEUKOCYTE COUNT: 14.93 x10E3/uL
  LYMPHOCYTE: 92.83%
  MEAN CORPUSCULAR HEMOGLOBIN: 24.97 pg
  MEAN CORPUSCULAR HEMOGLOBIN CONCENTRATION: 39.55 G/DL
  MEAN CORPUSCULAR VOLUME: 63.13 fL
  MONOCYTE: 0.33%
  NEUTROPHIL: 6.67%
  NUCLEATED RED BLOOD CELLS: 0 /100WBC
  PLATELET COUNT: 1248.17 x10E3/uL
  ALANINE AMINOTRANSFERASE: 45.17 u/L
  ALBUMIN: 4.27 G/DL
  ALKALINE PHOSPHATASE: 405.67 u/L
  ASPARTATE AMINOTRANSFERASE: 74.17 u/L
  BLOOD UREA NITROGEN: 15.5 mg/dL
  CARBON DIOXIDE: 30.17 mmol/L
  CHLORIDE: 100.67 MEQ/L
  CHOLESTEROL: 57 mg/dL
  CREATINE PHOSPHOKINASE: 239.5 u/L
  CREATININE: 0.17 mg/dL
  GLUCOSE: 165.67 mg/dL
  LACTATE DEHYDROGENASE: 90.5 u/L
  LIPASE: 8.83 u/L
  PHOSPHORUS: 12.32 mg/dL
  POTASSIUM: 7.03 MEQ/L
  SODIUM: 142.65 MEQ/L
  TOTAL BILIRUBIN: 0.18 mg/dL
  TOTAL PROTEIN: 6.03 G/DL
  URIC ACID: 1.98 mg/dL
[3]
  ABSOLUTE BASOPHIL: 0 CELLS/uL
  ABSOLUTE EOSINOPHIL: 0 CELLS/uL
  ABSOLUTE LYMPHOCYTE: 12859.33 CELLS/uL
  ABSOLUTE MONOCYTE: 198 CELLS/uL
  ABSOLUTE SEGMENTED NEUTROPHIL: 1176 CELLS/uL
  BASOPHIL: 0%
  EOSINOPHIL: 0%
  ERYTHROCYTE COUNT: 5.25 x10E6/uL
  HEMATOCRIT: 33.97%
  HEMOGLOBIN: 14.13 G/DL
  LEUKOCYTE COUNT: 14.23 x10E3/uL
  LYMPHOCYTE: 90%
  MEAN CORPUSCULAR HEMOGLOBIN: 25.77 pg
  MEAN CORPUSCULAR HEMOGLOBIN CONCENTRATION: 39.67 G/DL
  MEAN CORPUSCULAR VOLUME: 64.9 fL
  MONOCYTE: 1.33%
  NEUTROPHIL: 8.67%
  NUCLEATED RED BLOOD CELLS: 0 /100WBC
  PLATELET COUNT: 1306 x10E3/uL
  ALANINE AMINOTRANSFERASE: 53 u/L
  ALBUMIN: 4.17 G/DL
  ALKALINE PHOSPHATASE: 441 u/L
  ASPARTATE AMINOTRANSFERASE: 83.33 u/L
  BLOOD UREA NITROGEN: 16.67 mg/dL
  CARBON DIOXIDE: 27.67 mmol/L
  CHLORIDE: 98 MEQ/L
  CHOLESTEROL: 75.33 mg/dL
  CREATINE PHOSPHOKINASE: 360 u/L
  CREATININE: 0.1 mg/dL
  GLUCOSE: 146 mg/dL
  LACTATE DEHYDROGENASE: 180.33 u/L
  LIPASE: 9.33 u/L
  PHOSPHORUS: 13.93 mg/dL
  POTASSIUM: 6.77 MEQ/L
  SODIUM: 143.3 MEQ/L
  TOTAL BILIRUBIN: 0.23 mg/dL
  TOTAL PROTEIN: 5.9 G/DL
  URIC ACID: 1.47 mg/dL
[4]
  ABSOLUTE BASOPHIL: 0 CELLS/uL
  ABSOLUTE EOSINOPHIL: 0 CELLS/uL
  ABSOLUTE LYMPHOCYTE: 10085.67 CELLS/uL
  ABSOLUTE MONOCYTE: 133.67 CELLS/uL
  ABSOLUTE SEGMENTED NEUTROPHIL: 980.67 CELLS/uL
  BASOPHIL: 0%
  EOSINOPHIL: 0%
  ERYTHROCYTE COUNT: 5.03 x10E6/uL
  HEMATOCRIT: 33.2%
  HEMOGLOBIN: 13.3 G/DL
  LEUKOCYTE COUNT: 11.2 x10E3/uL
  LYMPHOCYTE: 91.33%
  MEAN CORPUSCULAR HEMOGLOBIN: 26.47 pg
  MEAN CORPUSCULAR HEMOGLOBIN CONCENTRATION: 40.07 G/DL
  MEAN CORPUSCULAR VOLUME: 66.07 fL
  MONOCYTE: 1%
  NEUTROPHIL: 7.67%
  NUCLEATED RED BLOOD CELLS: 0 /100WBC
  PLATELET COUNT: 833 x10E3/uL
  ALANINE AMINOTRANSFERASE: 55.67 u/L
  ALBUMIN: 4.23 G/DL
  ALKALINE PHOSPHATASE: 308.33 u/L
  ASPARTATE AMINOTRANSFERASE: 81 u/L
  BLOOD UREA NITROGEN: 17.33 mg/dL
  CARBON DIOXIDE: 26.33 mmol/L
  CHLORIDE: 102.33 MEQ/L
  CHOLESTEROL: 64 mg/dL
  CREATINE PHOSPHOKINASE: 354.67 u/L
  CREATININE: 0.13 mg/dL
  GLUCOSE: 152.33 mg/dL
  LACTATE DEHYDROGENASE: 110.67 u/L
  LIPASE: 12 u/L
  PHOSPHORUS: 12.5 mg/dL
  POTASSIUM: 6.61 MEQ/L
  SODIUM: 143.1 MEQ/L
  TOTAL BILIRUBIN: 0.2 mg/dL
  TOTAL PROTEIN: 5.97 G/DL
  URIC ACID: 2.27 mg/dL
